Source: ChEMBL document CHEMBL1156251, “Structure--activity relationships of polymyxin antibiotics” (J Med Chem, 2010)
≈ marks a conversion by molar mass, not a printed value. One block for each molecule: values may come before it. Where a SMILES comes first, the peptide text is derived from it. Bridges are numbered along the chain shown (N, C = ends). [ ]: non-standard residue; d: D form. The star is where a group is joined. Octanoyl = CCCCCCCC(=O)*; Dab = NCC[C@H](N)C(=O)O

Columns and labels:
Escherichia coli [1] = assay: Antimicrobial activity against Escherichia coli K-12; type: functional
Escherichia coli [2] = assay: Antimicrobial activity against Escherichia coli; type: functional
Salmonella enterica = assay: Antimicrobial activity against Salmonella enterica; type: functional
Pseudomonas aeruginosa [3] = assay: Antimicrobial activity against Pseudomonas aeruginosa; type: functional, organism-based
Staphylococcus aureus = assay: Antimicrobial activity against Staphylococcus aureus; type: functional
Klebsiella pneumoniae = assay: Antimicrobial activity against Klebsiella pneumoniae; type: functional
[4] = (§1) Toxicity in iv dosed CF1 mouse; type: organism-based; details: CF1, mouse, in vivo
Mus musculus [5] = assay: Protective activity in sc dosed CF1 mouse; details: in vivo
[6] = (§2) Toxicity in mouse; type: organism-based; details: in vivo
Lipopolysaccharide (LPS) = assay: Displacement of dansyl-PMB from LPS by isothermal titration calorimetry
Escherichia coli [7] = assay: Antimicrobial activity against Escherichia coli assessed as relative sensitizing activity; type: functional
Mus musculus [8] = assay: Acute toxicity in iv dosed mouse; type: organism-based; details: in vivo
Escherichia coli [9] = assay: Antimicrobial activity against PMB-susceptible Escherichia coli SC9251; type: functional
Escherichia coli [10] = assay: Antimicrobial activity against PMB-resistant Escherichia coli SC9253; type: functional
Mus musculus [11] = species: Mus musculus; assay: as §2; type: organism-based; details: in vivo
Mus musculus [12] = assay: as §1; type: organism-based; details: mouse, in vivo
Pseudomonas aeruginosa [13] = tested on: Pseudomonas aeruginosa

Molecule: CCCCCCCCCCCC(=O)N[C@H](C(=O)N[C@@H](CCN)C(=O)N[C@H]1CCNC(=O)[C@H]([C@@H](C)O)NC(=O)[C@H](CCN)NC(=O)[C@H](CCN)NC(=O)[C@H](CC(C)C)NC(=O)[C@@H](CC(C)C)NC(=O)[C@H](CCN)NC1=O)[C@@H](C)O
MIC (Escherichia coli [1]): 3 µg/mL (≈ 2.7 µM)

Molecule: CCCCCCCC(=O)N[C@@H](CCN)C(=O)N[C@H](C(=O)N[C@@H](CCN)C(=O)N[C@H]1CCNC(=O)[C@H]([C@@H](C)O)NC(=O)[C@H](CCNC(=O)[C@@H](N)CCCNC(=N)N)NC(=O)[C@H](CCN)NC(=O)[C@H](CC(C)C)NC(=O)[C@@H](Cc2ccccc2)NC(=O)[C@H](CCN)NC1=O)[C@@H](C)O (Octanoyl-[Dab]T[Dab][Dab][Dab][dF]L[Dab][Dab](Arg)T; lactam 4-C)
MIC (Escherichia coli [2]): 0.16 µg/mL
MIC (Pseudomonas aeruginosa [3]): 0.03 µg/mL
MIC (Klebsiella pneumoniae): 2 µg/mL (≈ 1.49 µM)
LD50 [4]: 15 mg/kg
PD50 (Mus musculus [5]): 0.25 mg/kg

Molecule: CC(C)C[C@@H]1NC(=O)[C@@H](Cc2ccccc2)NC(=O)[C@H](CCN)NC(=O)[C@@H](NC(=O)[C@H](CCN)NC(=O)[C@@H](N)[C@@H](C)O)CCNC(=O)[C@H]([C@@H](C)O)NC(=O)[C@H](CCN)NC(=O)[C@H](CCN)NC1=O (stereo in doubt; 193) [POLYMYXIN B NONAPEPTIDE]
LD50 [6]: 43 mg/kg
IC50 (Lipopolysaccharide (LPS); read-out: IC50): 2.5 µM
Activity (Escherichia coli [7]): 100%

Molecule: CC(C)C[C@@H]1NC(=O)[C@@H](Cc2ccccc2)NC(=O)[C@H](CCN)NC(=O)[C@@H](NC(=O)[C@H](CCN)NC(=O)[C@@H](NC(=O)[C@H](CN)NC(=O)O)[C@@H](C)O)CCNC(=O)[C@H]([C@@H](C)O)NC(=O)[C@H](CCN)NC(=O)[C@H](CCN)NC1=O [DESFA-[DIAMINOPROPANOIC ACID1]POLYMYXIN B]
MIC (Escherichia coli [2]): 8 µM
MIC (Salmonella enterica): 16 µM (≈ 17.5 µg/mL)
MIC (Pseudomonas aeruginosa [3]): 1 µM
IC50 (Lipopolysaccharide (LPS)): 14 µM
LD50 (Mus musculus [8]): 23.5 µM/g

Molecule: CC(C)C[C@@H]1NC(=O)[C@@H](Cc2ccccc2)NC(=O)[C@H](CCN)NC(=O)[C@@H](NC(=O)[C@H](CCN)NC(=O)[C@@H](NC(=O)[C@H](Cc2c[nH]c3ccccc23)NC(=O)O)[C@@H](C)O)CCNC(=O)[C@H]([C@@H](C)O)NC(=O)[C@H](CCN)NC(=O)[C@H](CCN)NC1=O [DESFA-[TRP1]POLYMYXIN B]
MIC (Escherichia coli [2]): 8 µM
MIC (Salmonella enterica): 8 µM (≈ 9.55 µg/mL)
MIC (Pseudomonas aeruginosa [3]): 8 µM
IC50 (Lipopolysaccharide (LPS)): 20 µM
LD50 (Mus musculus [8]): 19 µM/g

Molecule: CC(C)CCCCCC(O)CC(=O)N[C@@H](CCN)C(=O)N[C@H]1CCNC(=O)[C@H](CC(C)C)NC(=O)[C@H](CCN)NC(=O)[C@H](CCN)NC(=O)[C@H](CC(C)C)NC(=O)[C@@H](Cc2ccccc2)NC(=O)[C@H](CCN)NC1=O (some centres undefined) [OCTAPEPTIN A1]
MIC (Escherichia coli [9]): 1.7 µg/mL (≈ 1.61 µM)
MIC (Escherichia coli [10]): 0.3 µg/mL (≈ 0.283 µM)

Molecule: POLYMYXIN B [listing 1 of 2 here]
LD50 (Mus musculus [11]): 9 mg/kg
IC50 (Lipopolysaccharide (LPS)): 4 µM
LD50 (Mus musculus [12]): 9 mg/kg
LD50 (Mus musculus [8]): 4.8 µM/g

Second part, the molecule after the results:

MIC (Escherichia coli [1]): 12 µg/mL (≈ 11.2 µM)
Molecule: CCCCCCCCC(=O)N[C@H](C(=O)N[C@@H](CCN)C(=O)N[C@H]1CCNC(=O)[C@H]([C@@H](C)O)NC(=O)[C@H](CCN)NC(=O)[C@H](CCN)NC(=O)[C@H](CC(C)C)NC(=O)[C@@H](CC(C)C)NC(=O)[C@H](CCN)NC1=O)[C@@H](C)O

MIC (Escherichia coli [1]): 3 µg/mL (≈ 2.73 µM)
Molecule: CCCCCCCCCCC(=O)N[C@H](C(=O)N[C@@H](CCN)C(=O)N[C@H]1CCNC(=O)[C@H]([C@@H](C)O)NC(=O)[C@H](CCN)NC(=O)[C@H](CCN)NC(=O)[C@H](CC(C)C)NC(=O)[C@@H](CC(C)C)NC(=O)[C@H](CCN)NC1=O)[C@@H](C)O

MIC (Escherichia coli [1]): 50 µg/mL (≈ 46.2 µM)
Molecule: CCC(C)CCCCCC(=O)N[C@H](C(=O)N[C@@H](CCN)C(=O)N[C@H]1CCNC(=O)[C@H]([C@@H](C)O)NC(=O)[C@H](CCN)NC(=O)[C@H](CCN)NC(=O)[C@H](CC(C)C)NC(=O)[C@@H](CC(C)C)NC(=O)[C@H](CCN)NC1=O)[C@@H](C)O (some centres undefined)

MIC (Escherichia coli [2]): 4 µM
MIC (Salmonella enterica): 2 µM (≈ 2.28 µg/mL)
MIC (Pseudomonas aeruginosa [3]): 4 µM
MIC (Escherichia coli [1]): 12 µg/mL (≈ 10.5 µM)
Molecule: CCCCCCCCCCCCCC(=O)N[C@H](C(=O)N[C@@H](CCN)C(=O)N[C@H]1CCNC(=O)[C@H]([C@@H](C)O)NC(=O)[C@H](CCN)NC(=O)[C@H](CCN)NC(=O)[C@H](CC(C)C)NC(=O)[C@@H](CC(C)C)NC(=O)[C@H](CCN)NC1=O)[C@@H](C)O

MIC (Escherichia coli [2]): 0.5 µg/mL
MIC (Pseudomonas aeruginosa [3]): 2 µg/mL
MIC (Staphylococcus aureus): ≥ 16 µg/mL
Molecule: CCCCCCCCC(=O)N[C@H](C(=O)N[C@@H](CCN)C(=O)N[C@H]1CCNC(=O)[C@H]([C@@H](C)O)NC(=O)[C@H](CCN)NC(=O)[C@H](CCN)NC(=O)[C@H](CC(C)C)NC(=O)[C@@H](Cc2ccccc2)NC(=O)[C@H](CCN)NC1=O)[C@@H](C)O

MIC (Escherichia coli [2]): 0.03 µg/mL
MIC (Pseudomonas aeruginosa [3]): 4 µg/mL
MIC (Staphylococcus aureus): ≥ 16 µg/mL
Molecule: CCCCCCCC(=O)N[C@H](C(=O)N[C@@H](CCN)C(=O)N[C@H]1CCNC(=O)[C@H]([C@@H](C)O)NC(=O)[C@H](CCN)NC(=O)[C@H](CCN)NC(=O)[C@H](CC(C)C)NC(=O)[C@@H](Cc2ccccc2)NC(=O)[C@H](CCN)NC1=O)[C@@H](C)O (stereo in doubt; 80) [Octanoyl Polymixin B nonapeptide]

MIC (Escherichia coli [2]): 1 µg/mL
MIC (Pseudomonas aeruginosa [3]): 2 µg/mL
MIC (Staphylococcus aureus): ≥ 16 µg/mL
Molecule: CCCCCCCCCC(=O)N[C@H](C(=O)N[C@@H](CCN)C(=O)N[C@H]1CCNC(=O)[C@H]([C@@H](C)O)NC(=O)[C@H](CCN)NC(=O)[C@H](CCN)NC(=O)[C@H](CC(C)C)NC(=O)[C@@H](Cc2ccccc2)NC(=O)[C@H](CCN)NC1=O)[C@@H](C)O [DECANOYL POLYMIXIN B NONAPEPTIDE]

MIC (Escherichia coli [2]): 1 µM
MIC (Salmonella enterica): 1 µM
MIC (Pseudomonas aeruginosa [13]): 1 µM
Molecule: POLYMYXIN B [listing 2 of 2 here]
